For the assay, the target named is Pim-1 (Homo sapiens (Human), UniProt P11309). The assay is described as follows: Pim kinase binding activity assay (Example 901), PIM-1 enzyme, Caliper microfluidic peptide phosphorylation. Conditions: 20 pM PIM-1, 10 μM ATP, 1 μM FAM-peptide, 90 minutes at room temperature. It counts as biochemical. In outline:
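The readout was microfluidic mobility-shift separation of a FAM-tagged Pim-specific peptide, excited at 488 nm and read at 530 nm, with Ki calculated from percent conversion. Reactions held 20 pM PIM-1, 1 μM peptide and 10 μM ATP in pH 7.2 HEPES/MgCl2/DTT buffer, ran 90 min at room temperature and were stopped with EDTA.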

Structures are written as SMILES.

As usually defined, the Ki is a measure of affinity in units of concentration, obtained from inhibition or displacement. Lower therefore signals tighter binding.

Chain of Pim-1 (P11309 whole entry): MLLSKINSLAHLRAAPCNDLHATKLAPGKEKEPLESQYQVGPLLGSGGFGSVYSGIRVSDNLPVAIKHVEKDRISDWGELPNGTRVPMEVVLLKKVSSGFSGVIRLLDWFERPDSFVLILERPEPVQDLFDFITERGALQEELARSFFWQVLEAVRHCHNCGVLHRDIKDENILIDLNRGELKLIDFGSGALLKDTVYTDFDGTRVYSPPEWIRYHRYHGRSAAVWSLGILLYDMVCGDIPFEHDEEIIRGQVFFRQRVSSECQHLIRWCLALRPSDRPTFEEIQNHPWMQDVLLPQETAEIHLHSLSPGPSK

With `CN1CCN(c2cc3c(-c4cccc(N5CCNCC5)n4)n[nH]c3cn2)CC1=O` [Example 223, 1-methyl-4-(3-(6-(piperazin-1-yl)pyridin-2-yl)-1H-pyrazolo[3,4-c]pyridin-5-yl)piperazin-2-one], the Ki came out at 38.5 nM.

On to `C1=C(c2n[nH]c3cnc(-c4cccnc4)cc23)CCC1` [Example 225, 3-cyclopentenyl-5-(pyridin-3-yl)-1H-pyrazolo[3,4-c]pyridine], for which the Ki came to 2.83 nM. With `Cn1cc(-c2cc3c(-c4cccc(N5CCCCC(N)C5)n4)n[nH]c3cn2)cn1` (stereo not drawn) [Example 226, 1-(6-(5-(1-methyl-1H-pyrazol-4-yl)-1H-pyrazolo[3,4-c]pyridin-3-yl)pyridin-2-yl)azepan-3-amine], the affinity corresponds to a Ki of 0.051 nM. This Ki is about 55-fold lower than that of the compound before. Consider `c1cncc(-c2cc3c(C4CCCC4)n[nH]c3cn2)c1` [Example 228, 3-cyclopentyl-5-(pyridin-3-yl)-1H-pyrazolo[3,4-c]pyridine], for which the inhibitory constant (Ki) worked out at 43 nM. With `NC(=O)C1(N)CCN(c2cccc(-c3n[nH]c4cnc(-c5cccnc5)cc34)n2)CC1` [Example 229, 4-amino-1-(6-(5-(pyridin-3-yl)-1H-pyrazolo[3,4-c]pyridin-3-yl)pyridin-2-yl)piperidine-4-carboxamide], the affinity, expressed as Ki, was 0.22 nM. Compound `Cn1ccc(-c2n[nH]c3cnc(-c4cccnc4)cc23)n1` [Example 232, 3-(1-methyl-1H-pyrazol-3-yl)-5-(pyridin-3-yl)-1H-pyrazolo[3,4-c]pyridine] registered a Ki of 7.16 nM. In turn, `Cn1ccc(-c2n[nH]c3cnc(-c4cncc(N5CCC(N)CC5)n4)cc23)n1` [Example 233, 1-(6-(3-(1-methyl-1H-pyrazol-3-yl)-1H-pyrazolo[3,4-c]pyridin-5-yl)pyrazin-2-yl)piperidin-4-amine] displayed a Ki of 0.051 nM. With `Cn1cc(-c2cc3c(-c4cccc(N5CCNCC5)n4)n[nH]c3cn2)cn1` [Example 234, 5-(1-methyl-1H-pyrazol-4-yl)-3-(6-(piperazin-1-yl)pyridin-2-yl)-1H-pyrazolo[3,4-c]pyridine], the Ki is 0.036 nM.

`N#CCc1cc2c(-c3cccc(N4CCNCC4)n3)n[nH]c2cn1` [Example 235, 2-(3-(6-(piperazin-1-yl)pyridin-2-yl)-1H-pyrazolo[3,4-c]pyridin-5-yl)acetonitrile] had a Ki of 583 nM. In turn, `CNC(=O)C1(N)CCN(c2cccc(-c3n[nH]c4cnc(-c5cccnc5)cc34)n2)CC1` [Example 236, 4-amino-N-methyl-1-(6-(5-(pyridin-3-yl)-1H-pyrazolo[3,4-c]pyridin-3-yl)pyridin-2-yl)piperidine-4-carboxamide] had a Ki of 0.353 nM. `NCC[C@H]1CCCN(c2cccc(-c3n[nH]c4cnc(-c5cccnc5)cc34)n2)C1` [Example 237, (R)-2-(1-(6-(5-(pyridin-3-yl)-1H-pyrazolo[3,4-c]pyridin-3-yl)pyridin-2-yl)piperidin-3-yl)ethanamine] yielded a Ki of 0.042 nM. Take `N[C@@H]1CCC[C@H](Nc2cccc(-c3n[nH]c4cnc(-c5cccnc5)cc34)n2)C1` [Example 239, (1S,3R)—N1-(6-(5-(pyridin-3-yl)-1H-pyrazolo[3,4-c]pyridin-3-yl)pyridin-2-yl)cyclohexane-1,3-diamine]: the inhibition constant Ki was determined as 0.3 nM. The compound `N#Cc1cc(-c2n[nH]c3cnc(-c4cccnc4)cc23)cc(N2CCNCC2)c1` [Example 240, 3-(piperazin-1-yl)-5-(5-(pyridin-3-yl)-1H-pyrazolo[3,4-c]pyridin-3-yl)benzonitrile] gave an inhibition constant (Ki) of 5.28 nM.

`NCC[C@@H]1CCCN(c2cccc(-c3n[nH]c4cnc(-c5cccnc5)cc34)n2)C1` [Example 242, (S)-2-(1-(6-(5-(pyridin-3-yl)-1H-pyrazolo[3,4-c]pyridin-3-yl)pyridin-2-yl)piperidin-3-yl)ethanamine] had a Ki of 0.03 nM. For `Cc1ccc(-c2n[nH]c3cnc(-c4cccnc4)cc23)nc1N1CCC(N)CC1` [Example 243, 1-(3-methyl-6-(5-(pyridin-3-yl)-1H-pyrazolo[3,4-c]pyridin-3-yl)pyridin-2-yl)piperidin-4-amine] the value was 0.049 nM.

The values are drawn from patent US9260425B2 (Genetech, Inc., priority 2011, dated 2016).
